{
  "source": "paper PMC2918522",
  "about": "“Characterization of the first beta-class carbonic anhydrase from an arthropod (Drosophila melanogaster) and phylogenetic analysis of beta-class carbonic anhydrases in invertebrates” (BMC Biochemistry, 2010)",
  "data": [
    {"molecular_target": "T1, DmBCA (Drosophila melanogaster, UniProt Q9VHJ5)", "T1 construct": "gene CAHbeta; C-terminal thrombin site and His6; baculovirus/Sf9, purified from culture supernatant; thrombin treatment to remove tag; 28/27 kDa before/after thrombin; dimer", "T1 sequence (Q9VHJ5 1-255)": "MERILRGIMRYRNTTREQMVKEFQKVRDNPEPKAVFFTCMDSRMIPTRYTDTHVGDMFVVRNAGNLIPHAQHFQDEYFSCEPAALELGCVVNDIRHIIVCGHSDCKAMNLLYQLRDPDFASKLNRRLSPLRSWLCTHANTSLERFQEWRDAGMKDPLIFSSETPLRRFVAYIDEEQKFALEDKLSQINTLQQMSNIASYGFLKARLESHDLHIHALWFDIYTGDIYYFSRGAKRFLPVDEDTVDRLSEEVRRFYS", "experiment": "stopped-flow CO2 hydration assay", "type": "biochemical", "units": {"Ki": "mM"}, "values": [
      {"molecule": "Cl", "note": "[Cl^-]", "Ki": 0.97},
      {"molecule": "OB(O)c1ccccc1", "note": "[Ph-B(OH)2]", "Ki": 22.4},
      {"molecule": "NS(=O)(=O)O", "note": "[H2NSO3H]", "Ki": 2.45},
      {"molecule": "I", "note": "[I^-]", "Ki": 1.18},
      {"molecule": "O=NO", "note": "[NO2^-]", "Ki": 28.6},
      {"molecule": "F", "note": "[F^-]", "Ki": 0.8},
      {"molecule": "N#CS", "note": "[SCN^-]", "Ki": 1.28},
      {"molecule": "S", "note": "[HS^-]", "Ki": 1.01},
      {"molecule": "O=[N+]([O-])O", "note": "[NO3^-]", "Ki": 43.7},
      {"molecule": "O=S(=O)(O)O", "note": "[SO4^2-]", "Ki": 1.36},
      {"molecule": "N#CO", "note": "[CNO^-]", "Ki": 0.73},
      {"molecule": "O=S(O)O", "note": "[HSO3^-]", "Ki": 1.29},
      {"molecule": "Br", "note": "[Br^-]", "Ki": 1.04},
      {"molecule": "O=C(O)O", "note": "[HCO3^-]", "Ki": 26.9},
      {"molecule": "NS(N)(=O)=O", "note": "[H2NSO2NH2]", "Ki": 0.15}
    ]},
    {"molecular_target": "the molecule itself", "experiment": "dynamic light scattering + SEC; DLS (Zetasizer ZS): proteins exchanged to 50 mM Na2HPO4 pH 7.0, 100 mM NaCl, temperature scan 4-50°C, mass estimated from the hydrodynamic diameter with a globular protein standard curve; analytical gel filtration: Superdex200 10/300GL, 50 mM Na2HPO4, 650 mM NaCl pH 7.0, 20-30 μg protein per run", "values": [
      {"molecule": "Drosophila melanogaster β-carbonic anhydrase (DmBCA) (enzyme, UniProt Q9VHJ5 1-255, looked up, cDNA from S2 cells; A thrombin cleavage site stands between DmBCA and the C-terminal His6 (primer R4 encodes LVPRGS-HHHHHH after the last residue); also called D. melanogaster β-CA; Drosophila β-CA; source: Sf9 insect cells (baculovirus), purified from the culture supernatant (Probond nickel-chelating resin)) MERILRGIMRYRNTTREQMVKEFQKVRDNPEPKAVFFTCMDSRMIPTRYTDTHVGDMFVVRNAGNLIPHAQHFQDEYFSCEPAALELGCVVNDIRHIIVCGHSDCKAMNLLYQLRDPDFASKLNRRLSPLRSWLCTHANTSLERFQEWRDAGMKDPLIFSSETPLRRFVAYIDEEQKFALEDKLSQINTLQQMSNIASYGFLKARLESHDLHIHALWFDIYTGDIYYFSRGAKRFLPVDEDTVDRLSEEVRRFYS", "stoichiometry N": 2}
    ]}
  ]
}
